Patent US6309882A, “Antisense inhibition of replication protein a p70 subunit” (ISIS Pharmaceuticals, Inc., priority 1999, dated 2001)

Experiments:
Type in all cases: cell-based, human
[1] = test system: RPA70 mRNA; assay: RPA70 mRNA expression in Mia Paca II cells, dose response, Northern blot; details: for % mRNA EXPRESSION / % mRNA INHIBITION: Mia Paca II
Method: Antisense treatments were performed with phosphorothioate oligodeoxynucleotides. Cells were cultured in 6-well plates to 60-80% confluency for use in oligonucleotide treatments. Cells were washed once with OPTI-MEM™ (Life Technologies), pre-warmed to 37° C. Transfections were carried out in 1 ml OPTI-MEM™ containing 3 μg LIPOFECTIN™ (Life Technologies) per ml of Opti-MEM™ per 100 nM added oligonucleotide. OPTI-MEM™ containing the appropriate amount of LIPOFECTIN™ was added to the cells followed by addition of oligonucleotides from 1000×stocks. (For dose-response studies oligonucleotides were added from 20×stocks.) Cells were incubated for 5 h at 37° C. Following treatment, medium was removed and replaced with pre-warmed replete media (Bennett, C. F., et al., Mol. Pharm., 1992, 41, 1023-1033; Monia, B. P., et al., Nature Medicine, 1993, 2, 668-674).
Target mRNA levels were assessed by Northern blotting with target specific random primed [α-^32 P]dCTP-labeled cDNA probes, as described below. cDNAs for probes were obtained by specific RT-PCR of cellular RNAs.
For determination of mRNA levels by Northern blot, total RNA was prepared from cells 24 h after oligonucleotide addition using a SDS-lysis method (Peppel, K. and Baglioni, C., Biotechniques, 1990, 9, 711-713). Northern analysis was performed as described (Brown, T. and Mackey, K., in Current protocols in Molecular Biology (Ausubel, F. ed.), 1987, Vol. 1, pp. 4.9.1-4.912, Greene publishing, New York). To determine RPA70 mRNA expression RNA blots were probed using a random primed [α-^32 P]dCTP-labeled cDNA probe corresponding to a 562 nucleotide sequence (1519-2081) from human RPA70 (Erdile, L. F., et al., J. Biol. Chem., 1991, 266, 12090-12098). After transfer, membranes were prehybridized with Quik-Hyb solution (Stratagene, La Jolla, Calif.) for 1 h at 68° C. and then hybridized 1-4 hours with 12.5×10^6 cpm of cDNA probe and 2 μg salmon sperm DNA carrier in a total of 10 ml of hybridization solution. Following hybridization, membranes were washed twice at room temperature for 15 min in 2×SSC/0.1% SDS and then once at 60° C. for 30 min in 0.1×SSC/0.1% SDS.
RNA on the blots was quantified by phosphorimaging on a Fuji FLA-2000. RPA70 mRNA levels are normalized to the level of RPA70 mRNA measured in cells treated with 400 nM control 20N-mer phosphorothioate oligonucleotide and expressed as percentage of control treated levels. Glyceraldehyde phosphate dehydrogenase (GAPDH) mRNA levels were probed using a random primed GAPDH cDNA generated by RT-PCR with human GAPDH primers (Stratagene, Inc., La Jolla, Calif.). […]

[2] = test system: A549 cells; assay: Tumor cell survival, cell number by hemocytometer; details: A549, 400 nM, 72 hours
Method: (§1) To determine the effects of ISIS 12790 on tumor cell survival, T24, A549, Mia Paca II, and SW480 cells were treated with either ISIS 12790 or ISIS 13706 (a 20-mer with identical nucleotide composition but containing 7 mismatches relative to the target) and surviving cells counted 72 hours later.
(§2) For experiments where cell number was measured directly by hemocytometer, cells were plated in six well dishes 24 hr prior to the experiment and transfected at approximately 50-70% confluency with various phosphorothioate oligonucleotides at 400 nM, as described above. Following a single transfection, the cells were allowed to recover 72 hours. After 72 hr the cells were washed, trypsinized, and cell number was determined by hemocytometer. For each experiment, treatments were performed in triplicate wells. The number of cells corresponding to each well was determined twice.
(§3) Statistical analysis of mRNA levels and cell survival data were performed using BMDP Statistical package, Version 7.0 (BMDP Statistical Software, Inc., Los Angeles, Calif.). Data were subjected to ANOVA and the results were expressed in terms of F-values, t-values, and significance. For cell survival data, analyses included repeated measurements with 3 between factors (drug, concentration, and position). For mRNA levels only the 3 between factors were considered. Global comparisons were performed with F-tests and pairwise comparisons with t-tests. In each case, since there was no interaction with position, results were pooled and analyzed with two between factors (drug and concentration). Treatment with ISIS 12790 was associated with decreased cell number in all four tumor cell lines (see Table 4). The decrease in cell number observed in T24 cells was 79%. The decrease observed in the other three cell lines was: A549, 98% decrease; Mia Paca II, 85% decrease; SW480, 81% decrease.

[3] = test system: Mia Paca II cells; assay: Tumor cell survival, cell number by hemocytometer; details: 400 nM, 72 hours
Method: as §1, §2, §3

[4] = test system: SW480 cells; assay: Tumor cell survival, cell number by hemocytometer; details: SW480, 400 nM, 72 hours
Method: as §1, §2, §3

[5] = test system: HeLa cells; assay: HeLa cell survival, Sulforhodamine B staining; details: for % Cell Killing / % Cell Survival: SRB, three days
Text: Cells were transfected with matched, mismatched, or non-allele specific anti-RPA70 (ISIS 12790) oligonucleotides as described above. Following transfection, the cells were allowed to recover either three days (HeLa cells) or 6 days (Mia Paca II cells). The number of cells remaining attached to the tissue culture dish was quantified by Sulforhodamine B (SRB) staining (FluoReporter Colorimetric Cell Protein Assay Kit, Molecular probes).
To determine the effect of variance-specific antisense oligonucleotides on cell survival, cells were treated with oligonucleotides and cell survival measured by Sulforhodamine B staining. […] At the maximum concentration of ISIS 12781, 400 nM, there was an 84% reduction of surviving cells. […] After treatment with 400 nM oligonucleotide, the amount of cells remaining with VAR 13085 was 3.1-fold higher than with ISIS 12781. […] The IC50 for the decrease was less than 100 nM. The IC50s for inhibition of HeLa cell survival correlated with the IC50s for RPA70 mRNA suppression by both ISIS 12781 and ISIS 12790 oligonucleotides.

ISIS 12790: phosphorothioate oligodeoxynucleotide TGGTCTGCAGTTAGGGTCAG, SEQ ID NO 15, 3'-UTR 2230-2249, non-allele specific (DNA, all phosphorothioate, methylation of C not given here)
effect on RPA70 mRNA level ([1]; Mia Paca II cells (C allele)): dose-dependent decrease in RPA70 mRNA levels
% mRNA EXPRESSION ([1]; 50 nM): 43%
% mRNA INHIBITION ([1]; 50 nM): 57%
% mRNA EXPRESSION ([1]; 100 nM): 18%
% mRNA INHIBITION ([1]; 100 nM): 82%
% mRNA EXPRESSION ([1]; 200 nM): 14%
% mRNA INHIBITION ([1]; 200 nM): 86%
% mRNA EXPRESSION ([1]; 400 nM): 20%
% mRNA INHIBITION ([1]; 400 nM): 80%
% Cell Killing [2]: 98%
% Cell Survival [2]: 2%
decrease in cell number [2]: 98%
decrease in cell number [3]: 85%
% Cell Killing [4]: 81%
% Cell Survival [4]: 19%
decrease in cell number [4]: 81%
effect on cell survival ([5]; HeLa cells): dose-dependent reduction in the number of surviving cells
IC50 ([5]; HeLa cells, read-out: IC50 for decrease in cell survival): < 100 nM
% Cell Killing ([5]; HeLa, 50 nM): 77%
% Cell Survival ([5]; HeLa, 50 nM): 23%
% Cell Killing ([5]; HeLa, 100 nM): 66%
% Cell Survival ([5]; HeLa, 100 nM): 34%
% Cell Killing ([5]; HeLa, 200 nM): 89%
% Cell Survival ([5]; HeLa, 200 nM): 11%
reduction of surviving cells ([5]; HeLa, 400 nM): 90%
% Cell Killing ([5]; HeLa, 400 nM): 89%
% Cell Survival ([5]; HeLa, 400 nM): 11%
